{
  "source": "patent US20240166596A1",
  "about": "“SULFAMOYL BENZENE DERIVATIVES AND USES THEREOF” (AphioTx Inc., priority 2021, published 2024)",
  "key": {"[1]": {"system": "C57BL/6J mice", "assay": "Naloxone-precipitated morphine withdrawal, composite withdrawal score", "format": "in vivo", "conditions": "for Withdrawal behaviors: 60 minutes prior to naloxone", "protocol": "Adult male C57BL/6J (7-9 weeks) mice were used. Mice were housed under 12/12 hour light/dark cycles with ad libitum access to food and water. Mice were randomly allocated to different test groups. All experiments were approved by the University of Calgary Animal Care Committee and are in accordance with the guidelines of the Canadian Council on Animal Care.\nMorphine sulfate (MS, PCCA) prepared in 0.9% sterile saline solution was injected i.p. into male C57BLJ6J (20-30g) mice. Mice received ascending doses of morphine (i.p.) at 8 hours intervals: day 1, 10mg/kg; day 2, 20 mg/kg; day 3, 30 mg/kg; day 4, 40mg/kg. On day 5, mice received a morning injection of morphine (50 mg/kg). A subset of mice received probenecid (15, 25, and 50 mg/kg i.p., Invitrogen) or Compound 1 (0.1, 0.5 and 1 mg/kg) 1 hour following morphine. Mice then received i.p. naloxone (2 mg/kg, naloxone hydrochloride dihydrate, Sigma) 2 hours following morphine to rapidly induce opioid withdrawal. Control mice received equivalent volumes of 0.9% saline or appropriate vehicle solution (0.1% DMSO in saline) and were challenged with naloxone on day 5. Withdrawal behaviors were then scored for 30 minutes post naloxone injection. Behaviors were scored for occurrence and then scaled for severity at 5-minute intervals. Behaviors that were assigned a standardized score between 0-3 depending on severity were jumping, headshakes, wet-dog shakes, chewing/licking, and teeth chattering. Behaviors that were scored 1 point for presence during a 5-minute interval include piloerection and tremors/twitching. The mice were then weighed following the 30 minutes, and the weight difference was assigned a standardized score dependent on the weight change between 0-3 as well. The scaled and present/absent signs were compiled over the 30 minutes to produce a composite withdrawal score.\nAll data are presented as the mean±standard error mean (s.e.m), and each circle represents an individual animal or experiment. Tests of statistical difference were performed with GraphPad Prism 6 using either an ordinary one-way ANOVA with posthoc Dunnet test, or a two-way ANOVA with post hoc Sidak test. Sample sizes are consistent with those reported in similar studies and provide sufficient power to detect changes with the appropriate statistical analysis. For all experiments, a criterion a level was set at 0.05."}, "[2]": {"system": "C57BL/6J mice", "assay": "Naloxone-precipitated morphine withdrawal, composite withdrawal score", "format": "in vivo", "conditions": "0.5 mg/kg, 30 minutes before withdrawal"}},
  "data": [
    {"molecule": "CCCN(CCC)S(=O)(=O)c1ccc(C(O)(C(F)(F)F)C(F)(F)F)cc1", "note": "[Compound 1, 4-(1,1,1,3,3,3-hexafluoro-2-hydroxypropan-2-yl)-N,N-dipropylbenzenesulfonamide]", "values": [
      {"measurement": "Withdrawal behaviors", "setting": "[1]; 0.1 mg/kg", "result": "significantly attenuated"},
      {"measurement": "Withdrawal behaviors", "setting": "[1]; 0.5 mg/kg", "result": "significantly attenuated"},
      {"measurement": "Withdrawal behaviors", "setting": "[1]; 1 mg/kg", "result": "significantly attenuated"},
      {"measurement": "Effective dose, fold lower than probenecid", "setting": "[1]; 0.1-1 mg/kg vs probenecid 50 mg/kg", "result": "50-500 fold"},
      {"measurement": "Withdrawal behaviors", "setting": "[2]", "result": "not effective"}
    ]}
  ]
}
